Measurements published in patent US10165777B2, “Substituted pyrazolylpyrazole derivative and use of same as herbicide” (KYOYU AGRI CO., LTD., priority 2015, dated 2019).

What was measured:
Format in all cases: in vivo
[1] = system: Chenopodium album; experiment: Farming soil treatment test; conditions: soil surface spray prior to weed growth, 30 days
Protocol: (§1) Field soil was filled into a 1/6000 are pot followed by seeding with Digitaria ciliaris, Chenopodium album and Amaranthus retroflexus and covering with soil. Wettable powders of compounds of formula (I) shown in Table 1 prepared in compliance with the preparation examples were diluted with water to the prescribed amount of chemical and uniformly sprayed onto each soil surface layer using 100 liters of sprayed water per 10 are prior to weed growth following seeding. After treating for 30 days in a glass greenhouse at an average atmospheric temperature of 30° C., the herbicidal efficacy thereof was investigated. Evaluation of herbicidal efficacy was carried out in the same manner as the above-mentioned Test Example 1.

[2] = system: Digitaria ciliaris; experiment: Farming soil treatment test; conditions: soil surface spray prior to weed growth, 30 days
Protocol: as §1

[3] = system: Amaranthus retroflexus; experiment: Farming soil treatment test; conditions: soil surface spray prior to weed growth, 30 days
Protocol: as §1

[4] = system: Oryza sativa; experiment: Paddy herbicidal activity test, phytotoxicity to transplanted rice; conditions: rice transplanted in 2.0 leaf stage, 30 days
Protocol: (§2) 1. Paddy Herbicidal Activity Test Rice paddy soil was filled into a 1/10000 are pot followed by the addition of suitable amounts of water and chemical fertilizer, kneading, seeding with Echinochloa crus-galli, Monochoria vaginalis and Scirpus juncoides and maintaining in an irrigated state at a water depth of 3 cm. Wettable powders of Target Compound (I) shown in Table 1 prepared in compliance with the preparation examples were diluted with a suitable amount of water, rice plants in the 2.0 leaf stage were transplanted during 3.5 leaf stage of Echinochloa crus-galli, and treated by dropping in chemical in the prescribed amount per 10 are using a pipette. After treating for 30 days in a glass greenhouse at an average atmospheric temperature of 30° C., the herbicidal efficacy thereof was investigated. Evaluation of herbicidal efficacy was carried out by comparing growth inhibition rate (%) with an untreated group, while evaluation of phytotoxicity was carried out by comparing growth inhibition rate (%) with the state of a complete eradication group, and were evaluated at 11 levels indicated below.

[5] = system: Digitaria ciliaris; experiment: Weed foliar treatment test (Test 4, 4.0 to 5.0 leaf stage); conditions: 10 g a.i./10 a; foliar spray at 4.0 to 5.0 leaf stage of Digitaria ciliaris (plant height 10 cm to 15 cm); 20 days
Protocol: (§3) Field soil was filled into a 1/4500 are pot followed by seeding with Digitaria ciliaris and Galinsoga parviflora, covering with soil and cultivating in a glass greenhouse at an average atmospheric temperature of 25° C.
(§4) Wettable powders of Target Compound (I) shown in Table 1 prepared in compliance with the preparation examples were diluted with water to the prescribed amount of chemical and uniformly sprayed onto the weeds using 100 liters of sprayed water per 10 are when Digitaria ciliaris had grown to the 4.0 to 5.0 leaf stage (plant height: 10 cm to 15 cm).
(§5) After treating for 20 days in a glass greenhouse at an average atmospheric temperature of 25° C., the herbicidal efficacy thereof was investigated.
(§6) Evaluation of herbicidal efficacy was carried out in the same manner as the above-mentioned Test Example 1.

[6] = system: Galinsoga parviflora; experiment: as above; conditions: 10 g a.i./10 a; foliar spray at 4.0 to 5.0 leaf stage of Digitaria ciliaris; 20 days
Protocol: as §3, §4, §5, §6

[7] = system: Monochoria vaginalis; experiment: Paddy herbicidal activity test; conditions: irrigated pot, 30 days
Protocol: as §2

[8] = system: Echinochloa crus-galli; experiment: Paddy herbicidal activity test; conditions: irrigated pot, treated at 3.5 leaf stage of Echinochloa crus-galli, 30 days
Protocol: as §2

[9] = system: Scirpus juncoides; experiment: Paddy herbicidal activity test; conditions: irrigated pot, 30 days
Protocol: as §2

[10] = system: Chenopodium album; experiment: Weed foliar treatment test (Test 3, 1.0 to 2.0 leaf stage); conditions: foliar spray at 1.0 to 2.0 leaf stage of Digitaria ciliaris, 3 weeks
Protocol: (§7) Soil was filled into a 1/6000 are pot followed by seeding with Digitaria ciliaris, Chenopodium album and Amaranthus retroflexus, covering with soil, and cultivating in a glass greenhouse at an average atmospheric temperature of 25° C. Wettable powders of Target Compound (I) shown in Table 1 prepared in compliance with the preparation examples were diluted with water to the prescribed amount of chemical and uniformly sprayed onto the weeds using 150 liters of sprayed water per 10 are when Digitaria ciliaris had grown to the 1.0 to 2.0 leaf stage. After treating for 3 weeks in a glass greenhouse at an average atmospheric temperature of 25° C., the herbicidal efficacy thereof was investigated. Evaluation of herbicidal efficacy was carried out in the same manner as the above-mentioned Test Example 1.

[11] = system: Digitaria ciliaris; experiment: as above; conditions: foliar spray at 1.0 to 2.0 leaf stage of Digitaria ciliaris, 3 weeks
Protocol: as §7

[12] = system: Amaranthus retroflexus; experiment: as above; conditions: foliar spray at 1.0 to 2.0 leaf stage of Digitaria ciliaris, 3 weeks
Protocol: as §7

SMILES	herbicidal efficacy, Chenopodium album ([1]; 5 g a.i./10 a)	herbicidal efficacy, Chenopodium album ([1]; 10 g a.i./10 a)	herbicidal efficacy, Digitaria ciliaris ([2]; 5 g a.i./10 a)	herbicidal efficacy, Digitaria ciliaris ([2]; 10 g a.i./10 a)	herbicidal efficacy, Amaranthus retroflexus ([3]; 5 g a.i./10 a)	herbicidal efficacy, Amaranthus retroflexus ([3]; 10 g a.i./10 a)	phytotoxicity, Oryza sativa ([4]; 1 g a.i./10 a)	phytotoxicity, Oryza sativa ([4]; 5 g a.i./10 a)	herbicidal efficacy, Digitaria ciliaris [5]	herbicidal efficacy, Galinsoga parviflora [6]	herbicidal efficacy, Monochoria vaginalis ([7]; 1 g a.i./10 a)	herbicidal efficacy, Monochoria vaginalis ([7]; 5 g a.i./10 a)	herbicidal efficacy, Echinochloa crus-galli ([8]; 1 g a.i./10 a)	herbicidal efficacy, Echinochloa crus-galli ([8]; 5 g a.i./10 a)	herbicidal efficacy, Scirpus juncoides ([9]; 1 g a.i./10 a)	herbicidal efficacy, Scirpus juncoides ([9]; 5 g a.i./10 a)	herbicidal efficacy, Chenopodium album ([10]; 5 g a.i./10 a)	herbicidal efficacy, Chenopodium album ([10]; 10 g a.i./10 a)	herbicidal efficacy, Digitaria ciliaris ([11]; 5 g a.i./10 a)	herbicidal efficacy, Digitaria ciliaris ([11]; 10 g a.i./10 a)	further results
N#Cc1cnn(-c2nn3c(c2Cl)CCCC3)c1/C=C/c1ncccn1 [Compound 3.39, reference compound]	4 (40% to less than 50%)	4 (40% to less than 50%)	3 (30% to less than 40%)	4 (40% to less than 50%)	2 (20% to less than 30%)	3 (30% to less than 40%)	0 (0% to less than 10% (growth inhibition rate))	1 (10% to less than 20%)	2 (20% to less than 30%)	3 (30% to less than 40%)	2 (20% to less than 30%)	3 (30% to less than 40%)	1 (10% to less than 20%)	2 (20% to less than 30%)	0 (0% to less than 10% (growth inhibition rate))	0 (0% to less than 10% (growth inhibition rate))	4 (40% to less than 50%)	5 (50% to less than 60%)	2 (20% to less than 30%)	3 (30% to less than 40%)	herbicidal efficacy, Amaranthus retroflexus ([12]; 5 g a.i./10 a): 1 (10% to less than 20%); herbicidal efficacy, Amaranthus retroflexus ([12]; 10 g a.i./10 a): 2 (20% to less than 30%)
N#Cc1cnn(-c2nn3c(c2Cl)CCCC3)c1/C=C/c1ccccn1 [Compound 3.43, reference compound]	2 (20% to less than 30%)	3 (30% to less than 40%)	1 (10% to less than 20%)	3 (30% to less than 40%)	2 (20% to less than 30%)	2 (20% to less than 30%)	1 (10% to less than 20%)	2 (20% to less than 30%)	1 (10% to less than 20%)	3 (30% to less than 40%)	3 (30% to less than 40%)	3 (30% to less than 40%)	2 (20% to less than 30%)	3 (30% to less than 40%)	0 (0% to less than 10% (growth inhibition rate))	1 (10% to less than 20%)	3 (30% to less than 40%)	4 (40% to less than 50%)	1 (10% to less than 20%)	3 (30% to less than 40%)	herbicidal efficacy, Amaranthus retroflexus ([12]; 5 g a.i./10 a): 0 (0% to less than 10% (growth inhibition rate)); herbicidal efficacy, Amaranthus retroflexus ([12]; 10 g a.i./10 a): 2 (20% to less than 30%)
N#Cc1cnn(-c2nn3c(c2Br)CCCC3)c1/C=C/c1ccccn1 [Compound 3.44, reference compound]	2 (20% to less than 30%)	3 (30% to less than 40%)	0 (0% to less than 10% (growth inhibition rate))	1 (10% to less than 20%)	0 (0% to less than 10% (growth inhibition rate))	2 (20% to less than 30%)	0 (0% to less than 10% (growth inhibition rate))	1 (10% to less than 20%)	0 (0% to less than 10% (growth inhibition rate))	0 (0% to less than 10% (growth inhibition rate))	2 (20% to less than 30%)	2 (20% to less than 30%)	1 (10% to less than 20%)	2 (20% to less than 30%)	0 (0% to less than 10% (growth inhibition rate))	1 (10% to less than 20%)	1 (10% to less than 20%)	2 (20% to less than 30%)	0 (0% to less than 10% (growth inhibition rate))	0 (0% to less than 10% (growth inhibition rate))	herbicidal efficacy, Amaranthus retroflexus ([12]; 5 g a.i./10 a): 0 (0% to less than 10% (growth inhibition rate)); herbicidal efficacy, Amaranthus retroflexus ([12]; 10 g a.i./10 a): 0 (0% to less than 10% (growth inhibition rate))
N#Cc1cnn(-c2nn3c(c2Cl)CCCC3)c1N=Cc1ccncc1 [Compound 23]	10 (100%)	10 (100%)	9 (90% to less than 100%)	10 (100%)	9 (90% to less than 100%)	10 (100%)	0 (0% to less than 10% (growth inhibition rate))	1 (10% to less than 20%)	9 (90% to less than 100%)	10 (100%)	10 (100%)	10 (100%)	10 (100%)	10 (100%)	10 (100%)	10 (100%)	10 (100%)	10 (100%)	9 (90% to less than 100%)	10 (100%)	herbicidal efficacy, Amaranthus retroflexus ([12]; 5 g a.i./10 a): 9 (90% to less than 100%); herbicidal efficacy, Amaranthus retroflexus ([12]; 10 g a.i./10 a): 10 (100%)
